According to patent US8338565B2, “Macrocyclic compounds for inhibition of tumor necrosis factor alpha” (Ensemble Therapeutics Corporation, priority 2008, dated 2012):
Several values for one entry are separate records, joined by “and”; a condition that tells them apart may be missing. Equal values may be shown once. Read-outs that look alike come from different tables or passages of the source. Numbered stars: 1 amine (or outer) side, 2 acyl side, 3 side chain; on linkers, the order of the positions; unused ones are H or OH. Bridge positions count the residues as written; N and C are the ends. Square brackets hold non-standard residues; d marks the D form. Peptide text beside a SMILES is read from it. * marks the point of attachment. Phe(4-CF3) = N[C@@H](Cc1ccc(C(F)(F)F)cc1)C(=O)O; Bip = N[C@@H](Cc1ccc(-c2ccccc2)cc1)C(=O)O; dPhe(4-NH2) = Nc1ccc(C[C@@H](N)C(=O)O)cc1; Phe(4-NH2) = Nc1ccc(C[C@H](N)C(=O)O)cc1; d(hPhe) = N[C@H](CCc1ccccc1)C(=O)O; d2Thi = N[C@H](Cc1cccs1)C(=O)O; Suc = O=C(CCC(=O)[*:2])[*:1]; Nphe = O=C(O)CNCc1ccccc1; Ac3c = NC1(C(=O)O)CC1; Boc = CC(C)(C)OC(=O)*; GABA = NCCCC(=O)O; βAla = NCCC(=O)O

Assays:
[1] = target: T1, TNFα / TNFα receptor (TNFα R1/Fc) (Homo sapiens, UniProt P01375); assay: Inhibition of binding of TNFα to the TNFα receptor (plate ELISA competition); settings: Table 2
T1 construct: purchased R&D Systems
T1 sequence (P01375 77-233 limits assumed, species assumed): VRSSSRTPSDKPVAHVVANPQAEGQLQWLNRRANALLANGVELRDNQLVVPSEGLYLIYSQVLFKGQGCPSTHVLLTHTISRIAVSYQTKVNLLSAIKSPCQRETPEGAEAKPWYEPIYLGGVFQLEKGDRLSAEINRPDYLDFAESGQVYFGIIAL
How it was run: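 Plates were coated with TNFα at 15 nM. Test compound and 8.33 nM receptor-Fc (PBST, 2% DMSO) were first mixed in solution for 30 min at room temperature, then transferred to the plates for another 30 min. Competition was read by absorbance at 450 nm after HRP anti-human IgG Fc detection with TMB.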

[2] = test system: TNF-α (degradation of IkB in HeLa cells or A431 cells); assay: Human cell-based assay: inhibition of TNF-α induced degradation of IkB; settings: HeLa or A431 cells; for inhibition at 25 µM: 25 μM compound, read-out: Inhibition at Various Compound Concentrations, 25 μM; for inhibition at 5 µM: 5 μM compound, read-out: Inhibition at Various Compound Concentrations, 5 μM; for inhibition at 10 µM: 10 μM compound, read-out: Inhibition at Various Compound Concentrations, 10 μM
Protocol: We used a human cell-based assay to determine the TNF-α antagonistic activity of the compounds of this invention based upon the ability of the compounds to inhibit the degradation of IkB in those cells. The assay was performed on either HeLa cells or A431 cells.
On Day 1, wells of a 24-well tissue culture plate were seeded with cells that had been harvested from cultures in T-75 flasks by standard trypsin/EDTA treatment. The harvested cells were suspended in EMEM/10% FBS/P/S (100,000 HeLa cells/mL or 200,000 A431 cells/mL) and 1 mL aliquots were placed into each well. The cells were incubated overnight at 37° C. in a humidified CO2 incubator. On day 2, the cells were approximately 95% confluent.
Test and control compounds were diluted to a 1 mM solution by dilution in DMSO. The assay was run in Costar tubes. Into each tube was placed 2.5 or 5.0 μL of test compound (for testing 5 μM and 10 μM concentrations, respectively), 2.5 μL of 100× TNF-α solution (200 ng/mL TNF-α in EMEM containing 1μg/mL cycloheximide) and, for those tubes containing 2.5 μL of compound, an additional 2.5 μL of DMSO. To each tube was then added 0.5 mL of EMEM containing 1μg/mL cycloheximide. Negative control tubes contained either a) no compound, or b) no TNF-α. Tubes were then incubated for 30 minutes at room temperature.
Once incubation had begun, the media was aspirated from the cells in the 24-well plates. Sufficient EMEM/10% FBS/P/S containing 1 ug/mL cycloheximide was then added to cover the cells (approximately 3 mL) and the cells were retuned to the 37° C. humidified CO2 incubator until compound incubation was completed. The media was then aspirated from the cells, 0.2 mL of the compound solution was added and the cells re-incubated at 37° C. for 30 minutes. The plates were then placed on ice, the compound solution was aspirated from each well, and the cells washed once with 1 mL of cold PBS. Cells were then fixed with 500 μL of 3.7% formaldehyde in PBS (“fix solution”) for 20 minutes at room temperature. The fix solution was decanted and the cells permeabilized by 4× washing with 500 uL PBS/0.1% Triton X-100. After the final permeabilization wash, the cells were treated with 500 uL of Odyssey blocking buffer (OBB) and incubated at room temperature with shaking for 90 minutes.
The OBB was decanted and then to each well was then added 125 μL each of mouse anti-IkB CST#4814 (diluted 1:200 in OBB) and rabbit anti-beta-tubulin CST#2146 (diluted 1:200 in OBB). Plates were sealed with parafin and incubated overnight at room temperature with shaking.
On day 3, the antibody solution was removed from the cells and the cells were washed 5× with 0.5 mL PBST for five minutes each on a shaker. To each well was then aded 125 μL of a secondary antibody solution containing goat anti-mouse IgG-IRDye 800 and goat anti-rabbit IgG-IRDye (each diluted 1:500 in OBB+0.2% Tween 20). The plates were covered with aluminum foil and incubated for 1 hour at room temperature with shaking. The secondary antibody solution was removed and the cells washed 3× with 0.5 mL PBST for five minutes each on a shaker. Cells were then scanned by LICOR with the following settings: 700 intensity=6.0, 800 intensity=6.5; microplate2 settings with 3.0 mm offset; 169 resolution. LICOR values were fitted to an equation for a sigmoidal curve and IC50 values calculated from the fitted parameters. […] Blank cells indicate that the compound was not tested at that concentration. Certain compounds that were tested more than once and the values reflect the average of the multiple tests.

[3] = read-out: Activity (IC50, inhibition of TNFα binding to TNFα R1/Fc)
[4] = Activity (IC50, inhibition of TNFα binding to TNFα R1/Fc)

IC50 [1, 3] | Compound | inhibition at 25 µM [2] | inhibition at 5 µM [2] | inhibition at 10 µM [2] | IC50 [1, 4]
10 to 30 µM | O=C1CCC(=O)N[C@H](Cc2cccs2)C(=O)N[C@@H](Cc2ccc(-c3ccccc3)cc2)C(=O)N[C@H](Cc2ccccc2)C(=O)N[C@H](C(=O)O)Cc2ccc(cc2)N1 [Compound 1] ([d2Thi][Bip][dF][Phe(4-NH2)]-OH; linker N-4 via Suc) | 10 to 50% |  |  | 
< 10 µM | O=C1CCC(=O)N[C@H](CCc2ccccc2)C(=O)N[C@@H](Cc2ccc(C(F)(F)F)cc2)C(=O)N[C@H](Cc2ccccc2)C(=O)N[C@@H](C(=O)N[C@@H](Cc2ccccc2)C(=O)O)Cc2ccc(cc2)N1 [Compound 12] ([d(hPhe)][Phe(4-CF3)][dF][dPhe(4-NH2)]F-OH; linker N-4 via Suc) |  | 10 to 50% | 10 to 50% | 
10 to 30 µM | O=C(O)CCNC(=O)[C@H]1Cc2ccc(cc2)NC(=O)CCC(=O)N[C@H](CCc2ccccc2)C(=O)N[C@@H](Cc2ccc(C(F)(F)F)cc2)C(=O)N[C@H](Cc2ccccc2)C(=O)N1 [Compound 15] ([d(hPhe)][Phe(4-CF3)][dF][dPhe(4-NH2)][βAla]-OH; linker N-4 via Suc) |  |  | < 10% | 
< 10 µM | O=C(N[C@H](Cc1ccccc1)C(=O)O)[C@@H]1Cc2ccc(cc2)NC(=O)[C@H](O)[C@@H](O)C(=O)N[C@H](Cc2cccs2)C(=O)N[C@@H](Cc2ccc(-c3ccccc3)cc2)C(=O)N[C@H](Cc2ccccc2)C(=O)N1 [Compound 16] |  |  | < 10% | 
10 to 30 µM | O=C1CCC(=O)N[C@H](CCc2ccccc2)C(=O)N[C@@H](Cc2ccc(C(F)(F)F)cc2)C(=O)N[C@H](Cc2ccccc2)C(=O)N[C@H](C(=O)NC2(C(=O)O)CC2)Cc2ccc(cc2)N1 [Compound 18] ([d(hPhe)][Phe(4-CF3)][dF][Phe(4-NH2)][Ac3c]-OH; linker N-4 via Suc) |  | 50 to 80% | 10 to 50% | 
10 to 30 µM | O=C(O)CNC(=O)[C@@H]1Cc2ccc(cc2)NC(=O)CCC(=O)N[C@H](Cc2cccs2)C(=O)N[C@@H](Cc2ccc(-c3ccccc3)cc2)C(=O)N[C@H](Cc2ccccc2)C(=O)N1 [Compound 19] ([d2Thi][Bip][dF][Phe(4-NH2)]G-OH; linker N-4 via Suc) | < 10% |  |  | 
< 10 µM | C[C@H](NC(=O)[C@@H]1Cc2ccc(cc2)NC(=O)CCC(=O)N[C@H](Cc2cccs2)C(=O)N[C@@H](Cc2ccc(-c3ccccc3)cc2)C(=O)N[C@H](Cc2ccccc2)C(=O)N1)C(=O)O [Compound 20] ([d2Thi][Bip][dF][Phe(4-NH2)]A-OH; linker N-4 via Suc) | < 10% |  |  | 
< 10 µM | O=C(O)CCNC(=O)[C@@H]1Cc2ccc(cc2)NC(=O)CCC(=O)N[C@H](Cc2cccs2)C(=O)N[C@@H](Cc2ccc(-c3ccccc3)cc2)C(=O)N[C@H](Cc2ccccc2)C(=O)N1 [Compound 21] ([d2Thi][Bip][dF][Phe(4-NH2)][βAla]-OH; linker N-4 via Suc) | < 10% |  |  | 
30 to 100 µM | C[C@@H](NC(=O)[C@@H]1Cc2ccc(cc2)NC(=O)CCC(=O)N[C@H](Cc2cccs2)C(=O)N[C@@H](Cc2ccc(-c3ccccc3)cc2)C(=O)N[C@H](Cc2ccccc2)C(=O)N1)C(=O)O [Compound 24] ([d2Thi][Bip][dF][Phe(4-NH2)][dA]-OH; linker N-4 via Suc) | < 10% |  |  | 
10 to 30 µM | CC(C)[C@H](NC(=O)[C@@H]1Cc2ccc(cc2)NC(=O)CCC(=O)N[C@H](Cc2cccs2)C(=O)N[C@@H](Cc2ccc(-c3ccccc3)cc2)C(=O)N[C@H](Cc2ccccc2)C(=O)N1)C(=O)O [Compound 26] ([d2Thi][Bip][dF][Phe(4-NH2)]V-OH; linker N-4 via Suc) | 10 to 50% |  |  | 
< 10 µM | COC(=O)[C@H](CC(=O)O)NC(=O)[C@@H]1Cc2ccc(cc2)NC(=O)CCC(=O)N[C@H](Cc2cccs2)C(=O)N[C@@H](Cc2ccc(-c3ccccc3)cc2)C(=O)N[C@H](Cc2ccccc2)C(=O)N1 [Compound 29] ([d2Thi][Bip][dF][Phe(4-NH2)]D-OMe; linker N-4 via Suc) | < 10% |  |  | 
< 10 µM | O=C(O)CCCNC(=O)[C@@H]1Cc2ccc(cc2)NC(=O)CCC(=O)N[C@H](Cc2cccs2)C(=O)N[C@@H](Cc2ccc(-c3ccccc3)cc2)C(=O)N[C@H](Cc2ccccc2)C(=O)N1 [Compound 34] ([d2Thi][Bip][dF][Phe(4-NH2)][GABA]-OH; linker N-4 via Suc) | < 10% |  |  | 
10 to 30 µM | CC(C)(C)OC(=O)NCCCC[C@H](NC(=O)[C@@H]1Cc2ccc(cc2)NC(=O)CCC(=O)N[C@H](Cc2cccs2)C(=O)N[C@@H](Cc2ccc(-c3ccccc3)cc2)C(=O)N[C@H](Cc2ccccc2)C(=O)N1)C(=O)O [Compound 35] ([d2Thi][Bip][dF][Phe(4-NH2)]K(Boc)-OH; linker N-4 via Suc) | 50 to 80% |  |  | 
< 10 µM | O=C(O)CN(Cc1ccccc1)C(=O)[C@@H]1Cc2ccc(cc2)NC(=O)CCC(=O)N[C@H](Cc2cccs2)C(=O)N[C@@H](Cc2ccc(-c3ccccc3)cc2)C(=O)N[C@H](Cc2ccccc2)C(=O)N1 [Compound 36] ([d2Thi][Bip][dF][Phe(4-NH2)][Nphe]-OH; linker N-4 via Suc) | < 10% | 10 to 50% | 50 to 80% | 
< 10 µM | O=C1CCC(=O)N[C@H](Cc2cccs2)C(=O)N[C@@H](Cc2ccc(-c3ccccc3)cc2)C(=O)N[C@H](Cc2ccccc2)C(=O)N[C@H](C(=O)NC2(C(=O)O)CC2)Cc2ccc(cc2)N1 [Compound 39] ([d2Thi][Bip][dF][Phe(4-NH2)][Ac3c]-OH; linker N-4 via Suc) |  |  | 10 to 50% | 
< 10 µM | O=C1COc2ccc(cc2)C[C@@H](C(=O)N[C@H](CCc2ccccc2)C(=O)O)NC(=O)[C@H](Cc2c[nH]c3ccccc23)NC(=O)[C@@H](Cc2ccc(-c3ccccc3)cc2)NC(=O)[C@H](Cc2c[nH]c3ccccc23)N1 [Compound 744] |  |  |  | 
 | O=C1COc2ccc(cc2)C[C@@H](C(=O)N[C@H](CCc2ccccc2)C(=O)O)NC(=O)[C@H](Cc2c[nH]c3ccccc23)NC(=O)[C@@H](Cc2ccc(-c3ccccc3)cc2)NC(=O)[C@H](Cc2ccncc2)N1 [Compound 745] |  |  |  | 10 to 30 µM
 | O=C1COc2ccc(cc2)C[C@@H](C(=O)NCc2nnn[nH]2)NC(=O)[C@H](CCc2ccccc2)NC(=O)[C@@H](Cc2ccc(-c3ccccc3)cc2)NC(=O)[C@H](Cc2c[nH]c3ccccc23)N1 [Compound 746] |  |  |  | < 10 µM
< 10 µM | CN1C(=O)COc2ccc(cc2)C[C@@H](C(=O)N[C@H](CCc2ccccc2)C(=O)O)NC(=O)[C@H](Cc2c[nH]c3ccccc23)NC(=O)[C@@H](Cc2ccc(-c3ccccc3)cc2)NC(=O)[C@@H]1Cc1c[nH]c2ccccc12 [Compound 747] |  |  |  | 
< 10 µM | O=C(O)CCCNC(=O)[C@H]1Cc2ccc(cc2)OCC(=O)N[C@@H](Cc2c[nH]c3ccccc23)C(=O)N[C@H](Cc2ccc(-c3ccccc3)cc2)C(=O)N[C@@H](Cc2ccccc2F)C(=O)N1 [compound 713] |  |  |  | 
10 to 30 µM and > 100 µM | O=C(O)CCCNC(=O)[C@H]1Cc2ccc(cc2)OCC(=O)N[C@@H](Cc2ccncc2)C(=O)N[C@H](Cc2ccc(-c3ccccc3)cc2)C(=O)N[C@@H](CCc2ccccc2)C(=O)N1 [compound 715] |  |  |  | 
